The experiment concerns the target T1, intracellular domain of DDR1 (Homo sapiens, UniProt Q08345).
T1 construct: the intracellular domain of DDR1 (in a final concentration of 5 ng/μL) (Carna Biosciences, Inc.); purchased Carna Biosciences, Inc
The experiment in a line: Evaluation of DDR1 inhibition activity with HTRF KinEASE-TK kit. The format is biochemical. The following applies: DDR1 intracellular domain 5 ng/μL, ATP 25 μm/L, TK Substrate-biotin 1000 nmol/L, room temperature, one hour. The procedure: The DDR1 inhibition activity in the compounds of Examples 1 to 80 was evaluated with HTRF® KinEASE-TK kit (Cisbio Bioassays).
Each test substance was dissolved in dimethyl sulfoxide and then used for the evaluation as described below. Moreover, each of test substances and reagents was diluted in the kinase buffer (Cisbio Bioassays) prepared by adding thereto MgCl2, MnCl2, DTT, and the Supplemental Enzyme buffer (Cisbio Bioassays) to concentrations of 5 mmol/L, 0.5 mmol/L, 0.25 mmol/L, and 50 nmol/L, respectively, and then used. Each test substance (in DMSO in a final concentration of 1%), the intracellular domain of DDR1 (in a final concentration of 5 ng/μL) (Carna Biosciences, Inc.), the phosphate donor ATP (in final concentration of 25 μm/L) (Sigma), and the substrate TK Substrate-biotin (in a final concentration of 1000 nmol/L) (Cisbio Bioassays) were added to a 384-well black plate (Corning) and allowed to react at room temperature for one hour. After completion of the reaction, the TK Antibody-Cryptate (Cisbio Bioassays) and the Streptavidin-XL665 (Cisbio Bioassays) were added thereto and allowed to react at room temperature for one hour. In addition, the plate was provided with a well to which a test substance was not added, and with a well to which a test substance and the intracellular domain of DDR1 were […].
The fluorescence intensity in each well was measured using a multi-label counter (Envision, PerkinElmer; excitation wavelength: 320 nm, measurement wavelength: 665 nm and 620 nm) to calculate a ratio (the fluorescence intensity at 665 nm/the fluorescence intensity at 620 nm). The inhibition rate (%) of a test substance at each concentration was calculated based on the formula below: Inhibition rate (%)=([the ratio obtained from the well containing no test substance]−[the ratio from a well containing a test substance])/([the ratio obtained from the well containing no test substance]−[the ratio obtained from the well containing no intracellular domain of DDR1 and no test substance])×100.
The calculated inhibition rates were fitted to a sigmoidal dose-response curve by regression analysis using the Prism 5.04 (GraphPad Software, Inc.) to calculate the IC50 value of the test substance.
Background: TR-FRET usually uses a lanthanide donor and a delayed reading to cut background.

T1 sequence (Q08345 439-913 limits assumed): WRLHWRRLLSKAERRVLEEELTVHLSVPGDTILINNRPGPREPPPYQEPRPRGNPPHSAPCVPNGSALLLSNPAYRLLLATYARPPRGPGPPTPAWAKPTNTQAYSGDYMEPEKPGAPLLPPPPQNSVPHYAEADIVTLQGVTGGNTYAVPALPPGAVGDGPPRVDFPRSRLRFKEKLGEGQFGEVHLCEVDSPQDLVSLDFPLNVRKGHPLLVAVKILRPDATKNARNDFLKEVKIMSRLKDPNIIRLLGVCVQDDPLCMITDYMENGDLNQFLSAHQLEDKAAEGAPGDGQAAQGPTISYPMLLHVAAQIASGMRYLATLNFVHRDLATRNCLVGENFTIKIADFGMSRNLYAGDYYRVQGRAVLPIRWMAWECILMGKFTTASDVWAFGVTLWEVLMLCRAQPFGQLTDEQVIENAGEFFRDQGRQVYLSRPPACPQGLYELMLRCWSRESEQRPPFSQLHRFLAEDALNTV

Regarding `O=C(Nc1cc(C(F)(F)F)ccc1N1CCOCC1)N[C@H]1CC[C@H](Oc2ncccn2)CC1` [Example 57, 1-(2-morpholino-5-(trifluoromethyl)phenyl)-3-(trans-4-(pyrimidin-2-yloxy)cyclohexyl)urea], 653 nM corresponded to half-maximal inhibition (IC50).

Regarding `CNc1cc(O[C@H]2CC[C@H](NC(=O)Nc3cc(OC(F)(F)F)cc(CO)c3OC)CC2)ncn1` [Example 70, 1-(3-(hydroxymethyl)-2-methoxy-5-(trifluoromethoxy)phenyl)-3-(trans-4-((6-(methylamino)pyrimidin-4-yl)oxy)cyclohexyl)urea], half-maximal inhibition (IC50) was put at 13.4 nM.

As to `COc1c(CO)cc(OC(F)(F)F)cc1NC(=O)N[C@H]1CC[C@H](Oc2ccnc(-c3cccnc3)n2)CC1` [Example 79, 1-(3-(hydroxymethyl)-2-methoxy-5-(trifluoromethoxy)phenyl)-3-(trans-4-((2-(pyridin-3-yl)pyrimidin-4-yl)oxy)cyclohexyl)urea], half-maximal inhibition (IC50) required 22.8 nM.

For `COc1ccc(OC(F)(F)F)cc1NC(=O)N[C@H]1CC[C@H](Oc2cc(N3CCOCC3)ncn2)CC1` [Example 59, 1-(2-methoxy-5-(trifluoromethoxy)phenyl)-3-(trans-4-((6-morpholinopyrimidin-4-yl)oxy)cyclohexyl)urea], the IC50 – broadly, the concentration at which inhibition is half-maximal – came to 335 nM.

For the compound `COc1ccc(OC(F)(F)F)cc1NC(=O)N[C@H]1CC[C@H](OCc2cccnc2)CC1` [Example 68, 1-(2-methoxy-5-(trifluoromethoxy)phenyl)-3-(trans-4-(pyridin-3-ylmethoxy)cyclohexyl)urea], it took 16.6 nM to reach half-maximal inhibition (IC50).

As to `COc1ccc(OC(F)(F)F)cc1NC(=O)N[C@H]1CC[C@H](COc2cccc(C(N)=O)c2)CC1` [Example 78, 3-((trans-4-(3-(2-methoxy-5-(trifluoromethoxy)phenyl)ureido)cyclohexyl)methoxy)benzamide], the concentration for half-maximal inhibition (IC50) came to 80.1 nM.

`O=C(Nc1ccc(CO)c(C(F)(F)F)c1)N[C@H]1CC[C@H](OCc2ccncc2)CC1` [Example 23, 1-(4-(hydroxymethyl)-3-(trifluoromethyl)phenyl)-3-(trans-4-(pyridin-4-ylmethoxy)cyclohexyl)urea] yielded an IC50 of 402 nM.

Take `COc1c(CO)cc(C(F)(F)F)cc1NC(=O)N[C@H]1CC[C@H](Oc2ccnc(N3CCOCC3)n2)CC1` [Example 6, 1-(3-(hydroxymethyl)-2-methoxy-5-(trifluoromethyl)phenyl)-3-(trans-4-((2-morpholinopyrimidin-4-yl)oxy)cyclohexyl)urea]: it took 62.2 nM to reach half-maximal inhibition (IC50).

In turn, `O=C(Nc1cc(S(F)(F)(F)(F)F)ccc1OC1COC1)N[C@H]1CC[C@H](Oc2ncccn2)CC1` [Example 14, 1-(2-(oxetan-3-yloxy)-5-(pentafluorosulfanyl)phenyl)-3-(trans-4-(pyrimidin-2-yloxy)cyclohexyl)urea] showed an IC50 of 76.7 nM.

Take `CNc1nccc(O[C@H]2CC[C@H](NC(=O)Nc3cc(C(F)(F)F)ccc3OC3COC3)CC2)n1` [Example 64, 1-(trans-4-((2-(methylamino)pyrimidin-4-yl)oxy)cyclohexyl)-3-(2-(oxetan-3-yloxy)-5-(trifluoromethyl)phenyl)urea]: the IC50 was 54.5 nM.

Compound `COc1c(CO)cc(S(F)(F)(F)(F)F)cc1NC(=O)N[C@H]1CC[C@H](Oc2ccnc(N3CCOCC3)n2)CC1` [Example 5, 1-(3-(hydroxymethyl)-2-methoxy-5-(pentafluorosulfanyl)phenyl)-3-(trans-4-((2-morpholinopyrimidin-4-yl)oxy)cyclohexyl)urea] displayed an IC50 of 65.9 nM.

On to `O=C(Nc1cc(C(F)(F)F)ccc1OC1COC1)N[C@H]1CC[C@H](Oc2nccc(-c3cccnc3)n2)CC1` [Example 41, 1-(2-(oxetan-3-yloxy)-5-(trifluoromethyl)phenyl)-3-(trans-4-((4-(pyridin-3-yl)pyrimidin-2-yl)oxy)cyclohexyl)urea], for which the half-inhibitory concentration (IC50) was 45.6 nM.

Consider `COc1c(CO)cc(OC(F)(F)F)cc1NC(=O)N[C@H]1CC[C@H](OCc2cccnc2)CC1` [Example 67, 1-(3-(hydroxymethyl)-2-methoxy-5-(trifluoromethoxy)phenyl)-3-(trans-4-(pyridin-3-ylmethoxy)cyclohexyl)urea], for which half-maximal inhibition (IC50) required 9.69 nM.

The values are drawn from US10280145B2 (Toray Industries, Inc., priority 2015, dated 2019).
